Columns and labels:
[1] = target: phosphorylase kinase (PHK) (Oryctolagus cuniculus, UniProt P00518); experiment: Panel of protein kinases: PHK; type: biochemical; conditions: method of Davies et al.
Protocol: (§1) The compounds of the present invention were screened against a large panel of protein kinase to determine inhibition activity for CDK as against a variety of protein kinases. The assay was conducted using methods and materials described by Davies, S et al. Specificity and Mechanism of Action of Some Commonly Used Protein Kinase Inhibitors, Biochem J. 351, 95–105 (2000), the contents of which are herein incorporated by reference. The compounds were screened against a panel of protein kinases which include AMP-activiated protein kinase (AMPK), checkpoint kinase (CHK1), casein kinases 1 and 2 (CK1 and CK2), cytoplasmic tyrosine kinase (CSK), dual serine/threonine/tyrosine kinase (DYRK1A), glycogen synthase kinase 3 (GSK3B), c-Jun N-terminal kinase (JNK), lymphocyte kinase (LCK), mitogen-activated protein kinases 2, K-1a, K2 (MAPK2, MAPKAP-K1a, and MAPKAP-K2), MAPK kinase (MKK1, also called MEK), mitogen and stress-activated protein kinase 1 (MSK1), never-in-mitosis kinase 6 (NEK6), p70 ribosomal protein S6 kinase (P70s6K1), 3-phosphoinositide-dependent protein kinase 1 (PDK1), phosphorylase kinase (PHK), protein kinase A (PKA), protein kinase B (PKB, also called Akt), protein kinase C (PKCa), p38-regulated/activated kinase (PRAK), Rho-dependent protein kinase (ROCK-II), stress-activated protein kinase 2a, 2b, 3 and 4 (SAPK-2A or p38, SAPK-2b or p38β2, SAPK3 or p38γ, SAPK4 or p38δ, respectively), and serum- and glucocorticoid-induced kinase (SGK). Compound activity was grouped into categories of weak (<50%), moderate (50–75%) and strong inhibition (>75%).

[2] = target: protein kinase C (PKCa) (Homo sapiens, UniProt P17252); experiment: Panel of protein kinases: PKCa; type: biochemical; conditions: method of Davies et al.
Protocol: as §1

[3] = target: c-Jun N-terminal kinase (JNK) (Homo sapiens, UniProt P45983); experiment: Panel of protein kinases: JNK; type: biochemical; conditions: method of Davies et al.
Chain of c-Jun N-terminal kinase (JNK) (P45983 whole entry): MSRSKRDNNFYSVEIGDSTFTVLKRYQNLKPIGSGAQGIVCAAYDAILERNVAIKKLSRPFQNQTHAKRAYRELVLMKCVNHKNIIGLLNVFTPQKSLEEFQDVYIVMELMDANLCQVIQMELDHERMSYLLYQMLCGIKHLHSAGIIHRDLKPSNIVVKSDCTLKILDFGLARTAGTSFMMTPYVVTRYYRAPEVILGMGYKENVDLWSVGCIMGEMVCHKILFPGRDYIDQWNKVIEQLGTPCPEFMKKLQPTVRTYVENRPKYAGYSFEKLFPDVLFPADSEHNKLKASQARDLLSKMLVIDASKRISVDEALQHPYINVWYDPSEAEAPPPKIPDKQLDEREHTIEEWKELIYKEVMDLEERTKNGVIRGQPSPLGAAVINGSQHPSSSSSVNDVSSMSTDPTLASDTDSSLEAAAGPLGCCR
Protocol: as §1

[4] = target: protein kinase B (PKB, also called Akt) (Homo sapiens, UniProt P31749); experiment: Panel of protein kinases: PKB; type: biochemical; conditions: method of Davies et al.
Chain of protein kinase B (PKB, also called Akt) (P31749 118-480 limits assumed, species assumed): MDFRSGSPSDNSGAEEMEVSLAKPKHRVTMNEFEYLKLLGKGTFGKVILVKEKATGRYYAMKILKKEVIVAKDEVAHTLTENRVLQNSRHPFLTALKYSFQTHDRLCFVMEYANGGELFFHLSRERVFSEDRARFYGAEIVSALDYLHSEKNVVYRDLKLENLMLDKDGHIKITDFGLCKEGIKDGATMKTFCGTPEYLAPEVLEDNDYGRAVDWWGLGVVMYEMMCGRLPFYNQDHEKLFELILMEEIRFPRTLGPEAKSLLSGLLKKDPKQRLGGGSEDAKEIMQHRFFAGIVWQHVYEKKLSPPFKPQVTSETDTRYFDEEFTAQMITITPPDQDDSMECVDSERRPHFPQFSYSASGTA
Protocol: as §1

[5] = target: T1, serum- and glucocorticoid-induced kinase (SGK) (Homo sapiens, UniProt O00141, S422D); experiment: Panel of protein kinases: SGK; type: biochemical; conditions: method of Davies et al.
T1 sequence (O00141 61-431 S422D limits assumed): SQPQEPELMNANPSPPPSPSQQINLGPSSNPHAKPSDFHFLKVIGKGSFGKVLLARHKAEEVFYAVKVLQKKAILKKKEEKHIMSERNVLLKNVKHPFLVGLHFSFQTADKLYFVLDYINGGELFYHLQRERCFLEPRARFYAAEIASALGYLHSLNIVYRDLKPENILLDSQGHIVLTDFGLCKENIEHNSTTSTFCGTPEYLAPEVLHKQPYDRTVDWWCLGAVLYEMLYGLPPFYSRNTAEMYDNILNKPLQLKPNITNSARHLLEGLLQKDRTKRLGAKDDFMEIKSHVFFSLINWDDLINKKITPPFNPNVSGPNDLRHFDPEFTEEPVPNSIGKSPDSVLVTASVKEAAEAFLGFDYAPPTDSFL
Protocol: as §1

[6] = target: CDK2/A (Homo sapiens, UniProt P24941); experiment: Panel of protein kinases: CDK2/A; type: biochemical; conditions: method of Davies et al.
Protocol: as §1

[7] = target: MAPKAP-K1a (Homo sapiens, UniProt Q15418); experiment: Panel of protein kinases: MAPKAP-K1a; type: biochemical; conditions: method of Davies et al.
Chain of MAPKAP-K1a (Q15418 whole entry, species assumed): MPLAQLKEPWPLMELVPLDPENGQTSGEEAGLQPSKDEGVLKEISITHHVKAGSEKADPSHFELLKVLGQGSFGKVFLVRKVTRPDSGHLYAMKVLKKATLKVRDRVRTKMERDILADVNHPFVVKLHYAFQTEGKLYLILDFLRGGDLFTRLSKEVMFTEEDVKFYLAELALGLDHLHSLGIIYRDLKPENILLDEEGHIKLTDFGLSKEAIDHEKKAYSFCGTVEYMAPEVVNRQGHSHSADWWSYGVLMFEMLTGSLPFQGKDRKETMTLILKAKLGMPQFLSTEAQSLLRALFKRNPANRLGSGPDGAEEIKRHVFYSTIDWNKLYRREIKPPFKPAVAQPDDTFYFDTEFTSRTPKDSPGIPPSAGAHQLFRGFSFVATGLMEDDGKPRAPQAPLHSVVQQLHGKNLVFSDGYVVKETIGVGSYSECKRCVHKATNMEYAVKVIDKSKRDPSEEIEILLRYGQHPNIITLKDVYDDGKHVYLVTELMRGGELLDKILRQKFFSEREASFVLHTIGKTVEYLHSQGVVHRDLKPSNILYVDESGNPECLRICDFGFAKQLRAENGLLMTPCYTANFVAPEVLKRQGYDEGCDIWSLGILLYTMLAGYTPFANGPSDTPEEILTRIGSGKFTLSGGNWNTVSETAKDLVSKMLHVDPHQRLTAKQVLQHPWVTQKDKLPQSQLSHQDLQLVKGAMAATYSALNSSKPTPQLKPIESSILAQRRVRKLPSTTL
Protocol: as §1

[8] = target: T2, stress-activated protein kinase 4 (SAPK4 or p38δ) (Homo sapiens, UniProt O15264); experiment: Panel of protein kinases: SAPK4; type: biochemical; conditions: method of Davies et al.
T2 sequence (O15264 1-365): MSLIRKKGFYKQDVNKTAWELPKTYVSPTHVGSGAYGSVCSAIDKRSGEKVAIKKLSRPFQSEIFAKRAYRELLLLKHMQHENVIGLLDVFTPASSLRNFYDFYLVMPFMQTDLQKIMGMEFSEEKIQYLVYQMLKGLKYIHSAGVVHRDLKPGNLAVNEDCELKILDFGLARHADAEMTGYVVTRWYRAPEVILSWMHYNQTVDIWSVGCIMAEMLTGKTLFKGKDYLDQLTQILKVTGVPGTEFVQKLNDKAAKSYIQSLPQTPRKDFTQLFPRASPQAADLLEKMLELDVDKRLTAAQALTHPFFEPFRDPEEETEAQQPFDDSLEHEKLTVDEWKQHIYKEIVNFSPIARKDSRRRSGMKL
Protocol: as §1

[9] = target: never-in-mitosis kinase 6 (NEK6) (Homo sapiens, UniProt Q9HC98); experiment: Panel of protein kinases: NEK6; type: biochemical; conditions: method of Davies et al.
Chain of never-in-mitosis kinase 6 (NEK6) (Q9HC98 whole entry, species assumed): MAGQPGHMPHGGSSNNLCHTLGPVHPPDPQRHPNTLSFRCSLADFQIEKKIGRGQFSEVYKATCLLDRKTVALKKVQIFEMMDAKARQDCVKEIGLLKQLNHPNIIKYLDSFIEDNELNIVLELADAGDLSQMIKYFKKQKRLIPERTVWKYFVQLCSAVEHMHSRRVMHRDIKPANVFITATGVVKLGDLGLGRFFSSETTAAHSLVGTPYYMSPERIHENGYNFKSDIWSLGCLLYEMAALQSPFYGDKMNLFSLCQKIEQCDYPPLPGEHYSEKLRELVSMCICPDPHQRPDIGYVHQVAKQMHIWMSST
Protocol: as §1

[10] = target: mitogen and stress-activated protein kinase 1 (MSK1) (Homo sapiens, UniProt O75582); experiment: Panel of protein kinases: MSK1; type: biochemical; conditions: method of Davies et al.
Chain of mitogen and stress-activated protein kinase 1 (MSK1) (O75582 whole entry, species assumed): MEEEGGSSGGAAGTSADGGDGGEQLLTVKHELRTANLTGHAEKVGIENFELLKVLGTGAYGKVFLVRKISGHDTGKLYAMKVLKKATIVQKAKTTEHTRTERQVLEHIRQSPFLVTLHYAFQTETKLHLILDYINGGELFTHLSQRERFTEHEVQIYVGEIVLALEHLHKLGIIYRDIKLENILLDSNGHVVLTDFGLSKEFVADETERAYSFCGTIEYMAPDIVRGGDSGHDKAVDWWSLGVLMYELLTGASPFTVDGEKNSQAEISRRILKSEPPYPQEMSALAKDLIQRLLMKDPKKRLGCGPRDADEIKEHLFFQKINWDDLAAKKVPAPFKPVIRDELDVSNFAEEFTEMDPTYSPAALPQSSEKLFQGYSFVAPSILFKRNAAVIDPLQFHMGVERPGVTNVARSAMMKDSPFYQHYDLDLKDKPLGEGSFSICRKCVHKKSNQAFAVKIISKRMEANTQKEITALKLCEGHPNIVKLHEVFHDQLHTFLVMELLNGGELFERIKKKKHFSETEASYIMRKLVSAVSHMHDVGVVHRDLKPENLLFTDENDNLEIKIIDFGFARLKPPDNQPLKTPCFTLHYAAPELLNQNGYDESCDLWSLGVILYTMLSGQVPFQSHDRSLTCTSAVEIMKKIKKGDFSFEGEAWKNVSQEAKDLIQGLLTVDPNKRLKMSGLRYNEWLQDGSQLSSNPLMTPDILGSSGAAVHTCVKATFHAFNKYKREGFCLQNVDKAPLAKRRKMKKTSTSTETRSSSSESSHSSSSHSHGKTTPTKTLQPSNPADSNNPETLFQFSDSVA
Protocol: as §1

[11] = test system: HCT 116 cell line; experiment: Inhibition of cell growth, MTT tetrazolium salt assay; type: cell-based; conditions: Homo sapiens, 50% inhibition of growth
Protocol: Inhibition of cell growth was measured using the tetrazolium salt assay, which is based on the ability of viable cells to reduce 3-(4,5-dimethylthiazol-2-yl)-2,5-[2H]-diphenyltetrazolium bromide (MTT) to formazan (Mossman, Journal of Immunological Methods, vol. 65 (1983), pp. 55–58). The water-insoluble purple formazan product was then detected spectrophotometrically. The HCT 116 cell line was grown in 96-well plates. Cells were plated in the appropriate medium at a volume of 135 μl/well in McCoy's 5A Medium. Plates were incubated for four hours before addition of inhibitor compounds. Different concentrations of inhibitor compounds were added in 0.5% (v/v) dimethylsulfoxide (15 μL/well), and cells were incubated at 37° C. (5% CO2) for four to six days (depending on cell type). At the end of the incubation, MTT was added to a final concentration of 0.2 mg/mL, and cells were incubated for 4 hours more at 37° C. After centrifugation of the plates and removal of medium, the absorbance of the formazan (solubilized in dimethylsulfoxide) was measured at 540 nm. The concentration of inhibitor compound causing 50% inhibition of growth was determined from the linear portion of a semi-log plot of inhibitor concentration versus percentage inhibition. All results were compared to control cells treated only with 0.5% (v/v) dimethylsulfoxide.

SMILES | Kinase PHK inhibition [1] | Kinase PKCa inhibition [2] | Kinase JNK inhibition [3] | Kinase PKB inhibition [4] | Kinase SGK inhibition [5] | Kinase CDK2/A inhibition [6] | Kinase MAPKAP-K1a inhibition [7] | Kinase SAPK4 inhibition [8] | Kinase NEK6 inhibition [9] | Kinase MSK1 inhibition [10] | IC50 [11] [nM]
CCNCc1cncc(-c2ccc3[nH]nc(-c4nc5ccccc5[nH]4)c3c2)c1C [A] | ++ (Strong inhibition >75%) | + (Moderate inhibition 50–75%) | − (Weak inhibition <50%) | − (Weak inhibition <50%) | + (Moderate inhibition 50–75%) | ++ (Strong inhibition >75%) | ++ (Strong inhibition >75%) | − (Weak inhibition <50%) | − (Weak inhibition <50%) | − (Weak inhibition <50%) | 70
CCNCc1cncc(-c2ccc3[nH]nc(-c4nc5c(C(=O)NC)cccc5[nH]4)c3c2)c1C [B] | + (Moderate inhibition 50–75%) | ++ (Strong inhibition >75%) | − (Weak inhibition <50%) | − (Weak inhibition <50%) | + (Moderate inhibition 50–75%) | ++ (Strong inhibition >75%) | ++ (Strong inhibition >75%) | − (Weak inhibition <50%) | − (Weak inhibition <50%) | − (Weak inhibition <50%) | 90
CCNCc1cncc(-c2ccc3[nH]nc(-c4nc5c(SC)cccc5[nH]4)c3c2)c1C [C] | + (Moderate inhibition 50–75%) | + (Moderate inhibition 50–75%) | − (Weak inhibition <50%) | − (Weak inhibition <50%) | − (Weak inhibition <50%) | ++ (Strong inhibition >75%) | ++ (Strong inhibition >75%) | − (Weak inhibition <50%) | − (Weak inhibition <50%) | − (Weak inhibition <50%) | 86
CCNCc1cncc(-c2ccc3[nH]nc(-c4nc5c(NC(C)=O)cccc5[nH]4)c3c2)c1C [D] | − (Weak inhibition <50%) | − (Weak inhibition <50%) | − (Weak inhibition <50%) | − (Weak inhibition <50%) | − (Weak inhibition <50%) | ++ (Strong inhibition >75%) | + (Moderate inhibition 50–75%) | − (Weak inhibition <50%) | − (Weak inhibition <50%) | − (Weak inhibition <50%) | > 500
CCNCc1cncc(-c2ccc3[nH]nc(-c4nc5c(F)cc(F)cc5[nH]4)c3c2)c1C [Example 1, {5-[3-(4,6-Difluoro-1H-benzoimidazol-2-yl)-1H-indazol-5-yl]-4-methyl-pyridin-3-ylmethyl}-ethyl-amine] | + (Moderate inhibition 50–75%) | − (Weak inhibition <50%) | − (Weak inhibition <50%) | − (Weak inhibition <50%) | − (Weak inhibition <50%) | ++ (Strong inhibition >75%) | ++ (Strong inhibition >75%) | − (Weak inhibition <50%) | − (Weak inhibition <50%) | − (Weak inhibition <50%) | 120
CCNCc1cncc(-c2ccc3[nH]nc(-c4nc5cc(F)ccc5[nH]4)c3c2)c1C [Example 2, Ethyl-{5-[3-(5-fluoro-1H-benzoimidazol-2-yl)-1H-indazol-5-yl]-4-methyl-pyridin-3-ylmethyl}-amine] | ++ (Strong inhibition >75%) | − (Weak inhibition <50%) | − (Weak inhibition <50%) | − (Weak inhibition <50%) | − (Weak inhibition <50%) | ++ (Strong inhibition >75%) | − (Weak inhibition <50%) | − (Weak inhibition <50%) | − (Weak inhibition <50%) | − (Weak inhibition <50%) | 22

— US7008953B2, “3, 5 Disubstituted indazole compounds, pharmaceutical compositions, and methods for mediating or inhibiting cell proliferation” (Agouron Pharmaceuticals, Inc., priority 2003, dated 2006)
